In patent US11572369B2, “Bicyclic pyridine compositions and methods of using the same for cancer therapy” (UNIVERSITY OF SOUTH CAROLINA, priority 2019, dated 2023):

Experiments:
Experiment in all cases: KINOMEscan
Format in all cases: binding
Settings in all cases: 2000 nM
[1] = molecular target: ABL1(Y253F)-phosphorylated (Homo sapiens, UniProt P00519, Y253F)
ACVR2B = molecular target: T1, ACVR2B (Homo sapiens, UniProt Q13705)
T1 construct: purchased DiscoveRx (KINOMEscan scanMAX panel, service)

AKT2 = molecular target: T2, AKT2 (Homo sapiens, UniProt P31751)
T2 construct: purchased DiscoveRx (KINOMEscan scanMAX panel, service)

ANKK1 = molecular target: T3, ANKK1 (Homo sapiens, UniProt Q8NFD2)
T3 construct: DNA label (qPCR read-out); purchased KINOMEscan scanMAX panel (DiscoveRx)

BMPR1A = molecular target: T4, BMPR1A (Homo sapiens, UniProt P36894)
T4 construct: DNA label (for qPCR read-out); purchased KINOMEscan scanMAX panel (DiscoveRx)

CDK8 = molecular target: T5, CDK8 (Homo sapiens, UniProt P49336)
T5 construct: DNA label (qPCR read-out); purchased DiscoverX (assay service)

CSK = molecular target: T6, CSK (Homo sapiens, UniProt P41240)
T6 construct: DNA label; purchased DiscoveRx (KINOMEscan scanMAX panel)

CSNK1E = molecular target: T7, CSNK1E (Homo sapiens, UniProt P49674)
T7 construct: DNA label (qPCR read-out); purchased DiscoverX (assay service)

DRAK1 = molecular target: T8, DRAK1 (Homo sapiens, UniProt Q9UEE5)
T8 construct: DNA label (qPCR read-out); purchased KINOMEscan (DiscoveRx) panel

EPHA8 = molecular target: T9, EPHA8 (Homo sapiens, UniProt P29322)
T9 construct: purchased DiscoveRx (KINOMEscan scanMAX panel)

FER = molecular target: T10, FER (Homo sapiens, UniProt P16591)
T10 construct: DNA label (qPCR read-out); purchased DiscoveRx (KINOMEscan ScanMAX panel)

FLT3(R834Q) = molecular target: T11, FLT3(R834Q) (Homo sapiens, UniProt P36888, R834Q)
T11 construct: purchased KINOMEscan (DiscoveRx)

FLT3-autoinhibited = molecular target: T12, FLT3-autoinhibited (Homo sapiens, UniProt P36888)
T12 construct: purchased KINOMEscan (DiscoveRx)

INSR = molecular target: T13, INSR (Homo sapiens, UniProt P06213)
T13 construct: DNA label (qPCR read-out); purchased KINOMEscan (DiscoveRx) ScanMAX panel

IRAK1 = molecular target: T14, IRAK1 (Homo sapiens, UniProt P51617)
T14 construct: DNA label (qPCR read-out); purchased KINOMEscan (DiscoveRx) ScanMAX panel

ITK = molecular target: T15, ITK (Homo sapiens, UniProt Q08881)
T15 construct: DNA label (qPCR read-out); purchased KINOMEscan (DiscoveRx) ScanMAX panel

LCK = molecular target: T16, LCK (Homo sapiens, UniProt P06239)
T16 construct: purchased KINOMEscan (DiscoveRx) panel service

MUSK = molecular target: T17, MUSK (Homo sapiens, UniProt O15146)
T17 construct: DNA label (for qPCR read-out); purchased KINOMEscan scanMAX panel (DiscoveRx)

OSR1 = molecular target: T18, OSR1 (Homo sapiens, UniProt O95747)
T18 construct: purchased DiscoverX (KINOMEscan service)

PFTK1 = molecular target: T19, PFTK1 (Homo sapiens, UniProt O94921)
T19 construct: DNA label (for qPCR read-out); purchased DiscoveRx (KINOMEscan scanMAX service)

PIP5K1C = molecular target: T20, PIP5K1C (Homo sapiens, UniProt O60331)
T20 construct: DNA label (qPCR read-out); purchased KINOMEscan (DiscoveRx) panel

PRKG1 = molecular target: T21, PRKG1 (Homo sapiens, UniProt Q13976)
T21 construct: purchased DiscoveRx (KINOMEscan scanMAX panel)

RIOK2 = molecular target: T22, RIOK2 (Homo sapiens, UniProt Q9BVS4)
T22 construct: DNA label (qPCR read-out); purchased DiscoverX (assay service)

ROCK1 = molecular target: T23, ROCK1 (Homo sapiens, UniProt Q13464)
T23 construct: DNA label (qPCR read-out); purchased DiscoveRx (KINOMEscan ScanMAX panel)

[2] = molecular target: T24, RSK1(Kin.Dom.2-C-terminal) (Homo sapiens, UniProt Q15418)
T24 construct: RSK1(Kin.Dom.2); purchased DiscoveRx (KINOMEscan scanMAX panel)

[3] = molecular target: T25, RSK3(Kin.Dom.2-C-terminal) (Homo sapiens, UniProt Q15349)
T25 construct: RSK3(Kin.Dom.2); purchased DiscoveRx (KINOMEscan scanMAX panel)

[4] = molecular target: T26, RSK4(Kin.Dom.2-C-terminal) (Homo sapiens, UniProt Q9UK32)
T26 construct: RSK4(Kin.Dom.2); purchased DiscoveRx (KINOMEscan scanMAX panel)

SRMS = molecular target: T27, SRMS (Homo sapiens, UniProt Q9H3Y6)
T27 construct: purchased KINOMEscan (DiscoveRx)

STK16 = molecular target: T28, STK16 (Homo sapiens, UniProt O75716)
T28 construct: DNA label (for qPCR read-out); purchased DiscoveRx (KINOMEscan scanMAX panel, contract assay)

TBK1 = molecular target: T29, TBK1 (Homo sapiens, UniProt Q9UHD2)
T29 construct: DNA label (for qPCR read-out); purchased DiscoveRx (KINOMEscan scanMAX panel, contract assay)

TRKA = molecular target: T30, TRKA (Homo sapiens, UniProt P04629)
T30 construct: DNA label (qPCR read-out); purchased KINOMEscan (DiscoveRx) ScanMAX panel

TYRO3 = molecular target: T31, TYRO3 (Homo sapiens, UniProt Q06418)
T31 construct: DNA label (for qPCR read-out); purchased DiscoveRx (KINOMEscan scanMAX panel)

VPS34 = molecular target: T32, VPS34 (Homo sapiens, UniProt Q8NEB9)
T32 construct: DNA label (for qPCR read-out); purchased DiscoveRx (KINOMEscan scanMAX panel)

VRK2 = molecular target: T33, VRK2 (Homo sapiens, UniProt Q86Y07)
T33 construct: purchased KINOMEscan (DiscoveRx) panel service
T33 sequence (Q86Y07 whole entry): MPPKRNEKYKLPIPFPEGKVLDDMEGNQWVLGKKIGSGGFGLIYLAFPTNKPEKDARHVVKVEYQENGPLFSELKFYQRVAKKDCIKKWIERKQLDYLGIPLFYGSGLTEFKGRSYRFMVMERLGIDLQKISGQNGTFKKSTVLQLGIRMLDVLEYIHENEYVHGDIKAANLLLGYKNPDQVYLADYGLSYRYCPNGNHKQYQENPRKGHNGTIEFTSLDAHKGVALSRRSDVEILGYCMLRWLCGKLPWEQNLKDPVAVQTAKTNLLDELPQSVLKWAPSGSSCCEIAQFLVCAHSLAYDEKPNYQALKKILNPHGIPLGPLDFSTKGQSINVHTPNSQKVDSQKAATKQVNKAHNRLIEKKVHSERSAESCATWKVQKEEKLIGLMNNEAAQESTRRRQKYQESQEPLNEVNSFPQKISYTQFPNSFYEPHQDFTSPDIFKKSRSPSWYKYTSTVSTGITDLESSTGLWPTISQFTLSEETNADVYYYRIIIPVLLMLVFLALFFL

T16 sequence (P06239 whole entry): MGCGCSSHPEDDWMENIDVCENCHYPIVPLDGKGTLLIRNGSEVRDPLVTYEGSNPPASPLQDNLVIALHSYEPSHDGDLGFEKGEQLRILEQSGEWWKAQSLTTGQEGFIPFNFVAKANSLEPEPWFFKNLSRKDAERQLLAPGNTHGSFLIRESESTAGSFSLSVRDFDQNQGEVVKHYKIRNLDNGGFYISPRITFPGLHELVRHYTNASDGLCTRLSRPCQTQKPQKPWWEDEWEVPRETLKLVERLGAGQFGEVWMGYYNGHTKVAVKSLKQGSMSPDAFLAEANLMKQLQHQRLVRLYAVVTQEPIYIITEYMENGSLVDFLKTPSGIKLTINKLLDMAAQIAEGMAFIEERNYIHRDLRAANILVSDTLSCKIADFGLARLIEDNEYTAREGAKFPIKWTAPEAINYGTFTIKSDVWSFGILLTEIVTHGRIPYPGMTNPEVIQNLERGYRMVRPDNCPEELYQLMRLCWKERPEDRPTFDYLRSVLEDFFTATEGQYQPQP
T28 sequence (O75716 whole entry): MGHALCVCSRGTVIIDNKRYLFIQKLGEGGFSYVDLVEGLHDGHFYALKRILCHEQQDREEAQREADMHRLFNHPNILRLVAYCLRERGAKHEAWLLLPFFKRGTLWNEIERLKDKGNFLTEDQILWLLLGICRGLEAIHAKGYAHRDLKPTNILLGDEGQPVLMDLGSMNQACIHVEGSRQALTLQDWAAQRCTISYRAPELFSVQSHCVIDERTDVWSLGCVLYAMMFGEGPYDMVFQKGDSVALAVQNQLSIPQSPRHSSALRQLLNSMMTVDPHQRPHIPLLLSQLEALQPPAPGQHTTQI
T25 sequence (Q15349 415-672 limits assumed): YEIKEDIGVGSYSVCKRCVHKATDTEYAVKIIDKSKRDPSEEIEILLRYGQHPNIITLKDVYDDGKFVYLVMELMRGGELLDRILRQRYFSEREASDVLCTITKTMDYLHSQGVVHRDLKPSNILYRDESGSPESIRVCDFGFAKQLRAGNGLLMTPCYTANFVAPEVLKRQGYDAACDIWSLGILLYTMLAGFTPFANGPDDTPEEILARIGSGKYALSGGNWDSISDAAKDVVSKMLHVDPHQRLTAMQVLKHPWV
T14 sequence (P51617 whole entry): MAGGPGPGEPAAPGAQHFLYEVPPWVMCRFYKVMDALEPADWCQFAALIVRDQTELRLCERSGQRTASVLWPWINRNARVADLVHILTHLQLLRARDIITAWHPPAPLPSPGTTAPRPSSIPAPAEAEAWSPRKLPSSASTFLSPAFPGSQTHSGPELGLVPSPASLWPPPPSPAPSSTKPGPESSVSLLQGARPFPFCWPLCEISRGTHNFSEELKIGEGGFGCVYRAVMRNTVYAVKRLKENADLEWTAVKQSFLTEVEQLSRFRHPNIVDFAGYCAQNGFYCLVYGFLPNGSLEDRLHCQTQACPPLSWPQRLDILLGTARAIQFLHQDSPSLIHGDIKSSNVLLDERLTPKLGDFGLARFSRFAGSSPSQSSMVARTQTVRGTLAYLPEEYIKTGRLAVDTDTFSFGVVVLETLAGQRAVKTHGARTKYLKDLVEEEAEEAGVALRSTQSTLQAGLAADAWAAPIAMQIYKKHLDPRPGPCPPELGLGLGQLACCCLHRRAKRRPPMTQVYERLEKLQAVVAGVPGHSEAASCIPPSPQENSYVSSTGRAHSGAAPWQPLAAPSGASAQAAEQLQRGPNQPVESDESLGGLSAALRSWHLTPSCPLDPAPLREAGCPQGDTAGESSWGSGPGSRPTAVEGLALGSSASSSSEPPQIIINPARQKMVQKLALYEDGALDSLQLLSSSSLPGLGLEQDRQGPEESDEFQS
T26 sequence (Q9UK32 426-683 limits assumed): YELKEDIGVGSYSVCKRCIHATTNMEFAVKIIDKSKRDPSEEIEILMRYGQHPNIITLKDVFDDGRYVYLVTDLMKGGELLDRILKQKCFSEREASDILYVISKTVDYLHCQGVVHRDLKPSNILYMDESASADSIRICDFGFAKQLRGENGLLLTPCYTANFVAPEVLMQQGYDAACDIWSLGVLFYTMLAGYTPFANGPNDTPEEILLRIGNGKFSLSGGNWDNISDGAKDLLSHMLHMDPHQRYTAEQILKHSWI
T13 sequence (P06213 28-1382): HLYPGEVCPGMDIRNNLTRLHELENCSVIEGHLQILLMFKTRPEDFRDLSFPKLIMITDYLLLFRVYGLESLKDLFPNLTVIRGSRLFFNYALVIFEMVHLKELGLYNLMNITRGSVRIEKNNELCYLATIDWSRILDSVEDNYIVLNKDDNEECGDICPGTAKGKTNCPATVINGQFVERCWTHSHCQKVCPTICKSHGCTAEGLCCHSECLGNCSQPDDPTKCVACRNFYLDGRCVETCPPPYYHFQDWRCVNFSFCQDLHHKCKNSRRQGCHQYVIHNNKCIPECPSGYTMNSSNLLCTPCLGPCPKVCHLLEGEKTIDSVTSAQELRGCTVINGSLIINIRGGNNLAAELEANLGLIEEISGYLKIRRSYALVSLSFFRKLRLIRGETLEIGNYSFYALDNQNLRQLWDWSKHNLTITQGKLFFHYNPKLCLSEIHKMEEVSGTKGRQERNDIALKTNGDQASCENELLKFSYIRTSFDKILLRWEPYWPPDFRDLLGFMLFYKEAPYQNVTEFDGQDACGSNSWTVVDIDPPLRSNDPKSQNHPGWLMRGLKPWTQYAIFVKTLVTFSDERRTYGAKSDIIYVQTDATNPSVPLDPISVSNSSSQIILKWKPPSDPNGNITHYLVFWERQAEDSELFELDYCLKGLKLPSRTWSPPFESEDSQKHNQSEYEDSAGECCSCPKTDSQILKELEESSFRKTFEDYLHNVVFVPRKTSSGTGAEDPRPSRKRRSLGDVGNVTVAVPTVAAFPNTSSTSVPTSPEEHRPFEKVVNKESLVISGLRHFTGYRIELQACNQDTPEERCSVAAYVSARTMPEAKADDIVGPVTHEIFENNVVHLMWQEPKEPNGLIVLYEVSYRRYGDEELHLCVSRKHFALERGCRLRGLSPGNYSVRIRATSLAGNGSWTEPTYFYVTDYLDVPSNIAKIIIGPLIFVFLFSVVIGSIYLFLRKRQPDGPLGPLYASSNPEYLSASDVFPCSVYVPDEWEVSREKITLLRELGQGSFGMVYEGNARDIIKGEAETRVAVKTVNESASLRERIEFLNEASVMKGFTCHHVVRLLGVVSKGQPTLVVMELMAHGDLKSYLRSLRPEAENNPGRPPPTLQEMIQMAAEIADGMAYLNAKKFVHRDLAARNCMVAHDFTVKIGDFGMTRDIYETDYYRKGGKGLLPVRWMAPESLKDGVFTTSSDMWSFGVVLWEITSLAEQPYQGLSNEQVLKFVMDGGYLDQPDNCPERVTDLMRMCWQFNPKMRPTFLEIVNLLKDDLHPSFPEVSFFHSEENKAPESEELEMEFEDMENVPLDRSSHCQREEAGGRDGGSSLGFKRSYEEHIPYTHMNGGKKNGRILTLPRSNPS
T19 sequence (O94921 whole entry): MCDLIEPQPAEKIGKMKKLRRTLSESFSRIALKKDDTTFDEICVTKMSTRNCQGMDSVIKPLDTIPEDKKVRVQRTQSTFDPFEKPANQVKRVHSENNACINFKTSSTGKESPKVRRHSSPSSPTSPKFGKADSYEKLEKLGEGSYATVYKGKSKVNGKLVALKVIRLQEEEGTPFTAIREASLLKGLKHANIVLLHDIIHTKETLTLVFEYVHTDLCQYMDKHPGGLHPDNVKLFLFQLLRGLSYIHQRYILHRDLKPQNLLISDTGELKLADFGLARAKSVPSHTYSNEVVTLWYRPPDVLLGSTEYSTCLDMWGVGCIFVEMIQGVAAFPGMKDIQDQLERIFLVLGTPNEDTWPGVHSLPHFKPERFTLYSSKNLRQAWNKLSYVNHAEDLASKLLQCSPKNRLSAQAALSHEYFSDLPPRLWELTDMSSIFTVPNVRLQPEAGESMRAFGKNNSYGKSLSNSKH
T2 sequence (P31751 whole entry): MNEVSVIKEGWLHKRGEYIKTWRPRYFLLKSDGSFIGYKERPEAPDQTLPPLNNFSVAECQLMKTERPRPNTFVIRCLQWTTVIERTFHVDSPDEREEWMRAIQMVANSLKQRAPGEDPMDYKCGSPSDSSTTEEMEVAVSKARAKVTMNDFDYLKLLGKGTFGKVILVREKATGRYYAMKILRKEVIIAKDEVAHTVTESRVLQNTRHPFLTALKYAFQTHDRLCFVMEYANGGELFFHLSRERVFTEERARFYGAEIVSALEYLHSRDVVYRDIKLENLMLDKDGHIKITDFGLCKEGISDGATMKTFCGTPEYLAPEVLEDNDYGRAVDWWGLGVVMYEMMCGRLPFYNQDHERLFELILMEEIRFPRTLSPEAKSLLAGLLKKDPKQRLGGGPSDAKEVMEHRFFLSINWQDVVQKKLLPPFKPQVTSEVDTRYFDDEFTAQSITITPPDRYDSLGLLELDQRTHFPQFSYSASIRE

SMILES	% Ctrl [1] [% Ctrl]	% Ctrl (ACVR2B) [% Ctrl]	% Ctrl (AKT2) [% Ctrl]	% Ctrl (ANKK1) [% Ctrl]	% Ctrl (BMPR1A) [% Ctrl]	% Ctrl (CDK8) [% Ctrl]	% Ctrl (CSK) [% Ctrl]	% Ctrl (CSNK1E) [% Ctrl]	% Ctrl (DRAK1) [% Ctrl]	% Ctrl (EPHA8) [% Ctrl]	% Ctrl (FER) [% Ctrl]	% Ctrl (FLT3(R834Q)) [% Ctrl]	% Ctrl (FLT3-autoinhibited) [% Ctrl]	% Ctrl (INSR) [% Ctrl]	% Ctrl (IRAK1) [% Ctrl]	% Ctrl (ITK) [% Ctrl]	% Ctrl (LCK) [% Ctrl]	% Ctrl (MUSK) [% Ctrl]	% Ctrl (OSR1) [% Ctrl]	% Ctrl (PFTK1) [% Ctrl]	also measured
CN(C)C(=O)c1ccc(N2CCCN(c3ccnc4sc(C(N)=O)c(N)c34)CC2)cc1 [15u, 3-amino-4-(4-(4-(dimethylcarbamoyl)phenyl)-1,4-diazepan-1-yl)thieno[2,3-b]pyridine-2-carboxamide]	100	100	86	100	100	2.6	86	25	100	94	99	100	72	97	94	88	91	94	100	96	% Ctrl (PIP5K1C): 64 % Ctrl; % Ctrl (PRKG1): 88 % Ctrl; % Ctrl (RIOK2): 35 % Ctrl; % Ctrl (ROCK1): 77 % Ctrl; % Ctrl [2]: 100 % Ctrl; % Ctrl [3]: 100 % Ctrl; % Ctrl [4]: 94 % Ctrl; % Ctrl (SRMS): 81 % Ctrl; % Ctrl (STK16): 80 % Ctrl; % Ctrl (TBK1): 99 % Ctrl; % Ctrl (TRKA): 93 % Ctrl; % Ctrl (TYRO3): 100 % Ctrl; % Ctrl (VPS34): 85 % Ctrl; % Ctrl (VRK2): 84 % Ctrl
[2H]C([2H])([2H])N(C(=O)c1ccc(N2CCCN(c3ccnc4sc(C(N)=O)c(N)c34)CC2)cc1)C([2H])([2H])[2H] [15u_D6, 3-amino-4-(4-(4-(bis(methyl-d3)carbamoyl)phenyl)-1,4-diazepan-1-yl)thieno[2,3-b]pyridine-2-carboxamide]	81	86	99	91	100	0.25	92	12	100	83	100	68	77	80	84	87	100	82	88	100	% Ctrl (PIP5K1C): 25 % Ctrl; % Ctrl (PRKG1): 100 % Ctrl; % Ctrl (RIOK2): 3.9 % Ctrl; % Ctrl (ROCK1): 67 % Ctrl; % Ctrl [2]: 86 % Ctrl; % Ctrl [3]: 89 % Ctrl; % Ctrl [4]: 79 % Ctrl; % Ctrl (SRMS): 93 % Ctrl; % Ctrl (STK16): 87 % Ctrl; % Ctrl (TBK1): 97 % Ctrl; % Ctrl (TRKA): 78 % Ctrl; % Ctrl (TYRO3): 100 % Ctrl; % Ctrl (VPS34): 65 % Ctrl; % Ctrl (VRK2): 56 % Ctrl
